SMILES strings stand for the structures.

Assay type in all cases: cell-based, human
In test [1] the test system is HUVEC. As to the kind of experiment: HUVEC tube formation on ECmatrix. The following applies: 50 μM. How it is done:
FIG. 31 illustrates that SEQ ID NO: 10 decreases tube formation in HUVEC, wherein HUVEC were seeded on solidified ECmatrix™ without (Control) or with 10 μg/mL or 50 μg/mL of SEQ ID NO: 10 or the angiogenesis inhibitor Tranilast, cells were also incubated with 10 μM or 50 μM of the ROCK inhibitor Fasudil, capillary-like structures were visualized between 6 h to 20 h incubation, and wherein in (A) photographs were taken under phase contrast inverted microscope at 40× magnification and (B) quantification of tube length was reported as percentage of the length from untreated cells SEM (photographs and quantification are representative of at least 2 independent experiments analyzed in triplicate; symbols * and ** represent respectively significant (p<0.05) and highly significant (p<0.01) difference from untreated cells);
Referring to FIG. 31, to evaluate the importance of the signalling pathway Rho-Rock in angiogenesis, Transilat (10 μg/ml and 50 μg/ml) is used as a positive control. Transilat is known to block one of the principal angiogenesis routes i.e. the VEGF pathway. The binding of VEGF to VEGF-R stimulates tyrosine auto-phosphorylation of one of the receptors which initiates a signalling pathway, in part through PKC. Tranilast acts by inhibiting VEGF dependent PKC activation. […]

The test system of test [2] is HUVEC. Nature of the test: HUVEC proliferation (Alamar blue). Conditions: up to 100 μg/mL (or μM), 24 hr or 72 hr. How it is done: FIG. 32 illustrates that SEQ ID NO: 10 affects HUVEC proliferation at high concentration, wherein HUVEC were plated in 96 wells (collagen 1-coated) and incubated during 24 h or 72 with 0 to 100 μg/mL (or μM) of SEQ ID NO: 10, Fasudil or Tranilast, cells from 4 h and 24 h were washed out and replenished with fresh media containing no test compounds and left until 72 hours, and at the end of treatment (72 hours) Alamar blue was added, incubated for 4 hours and fluorescence was measured. Proliferation is represented in a graph as a percentage of that from untreated cells (0 μg/mL)±S.D. and represents 2 independent studies analyzed in triplicate;
Given that SEQ ID NO: 10 efficiently ribosylates RhoA and therefore inhibits its activity under these conditions, it appears that the proliferation of HUVEC in this system, along with this part of the angiogenic sequence, proceeds independently of RhoA activity. In contrast, HUVEC proliferation seems to depend on Rho kinase activity as well as on the activity of those targets, possibly including protein kinase C, blocked by Tranilast.
Background: The colour change of resazurin is a common sign of viable cells or microbes.

In test [3] the test system is HUVEC. Nature of the test: VEGF-dependent HUVEC migration (transwell). Conditions: 20 hours. How it is done:
FIG. 33 illustrates that SEQ ID NO: 10 can modify VEGF-dependent HUVEC migration, wherein in (A) HUVEC were seeded into 24-well-fibronectin-coated transwell chambers containing SEQ ID NO: 10, Fasudil or Tranilast, migration was stimulated for 20 hours with 10 ng/mL of VEGF with or without test compound, migrated cells were measured by fluorescence using Calcein-AM as a probe, and in (B) HUVEC were pre-treated for 24 hours with 50 μg/mL of SEQ ID NO: 10 prior to the start of migration (results are expressed as a percentage of that from untreated cells stimulated with VEGF±SEM and represent 4 independent experiments analyzed in duplicate; symbols * and *** represent, respectively, significant (p<0.05) and highly significant (p<0.001) difference from untreated cells+VEGF (Control+VEGF); symbol # # # represents significant difference (p<0.001) from untreated cells−VEGF (Control−VEGF));
Another cellular function and part of the angiogenic process that is known to be perturbed by Rho GTPase inhibition is endothelial cell migration. In order to evaluate the effect of SEQ ID NO: 10 on HUVEC migration, cells are seeded in the upper side of a transwell insert along with the desired test compounds, and migration is then induced with 10 ng/mL of VEGF at the bottom side of the insert. After 20 hours of migration, cells that pass through the membrane of the insert are labeled with calcein AM probe and detected via fluorescence. […].

As for `O=S(=O)(c1cccc2cnccc12)N1CCCNCC1` [Fasudil], the “decrease of tube formation” value with HUVEC [1] is 58%. In addition, in the test on HUVEC [2], the HUVEC proliferation result is given as “significant (p<0.01) reductions in HUVEC cell proliferation”. Further, in the test with HUVEC [3] (50 μM), the “decrease of VEGF-induced HUVEC migration” value worked out at 66%.

`COc1ccc(/C=C/C(=O)Nc2ccccc2C(=O)O)cc1OC` [Tranilast]: the “decrease of VEGF-induced HUVEC migration” value is reported as 45% with HUVEC [3] (10 μg/mL) and 72% in the test with HUVEC [3] (50 μg/mL).

Values taken from US7795218B2, “ADP-ribosyl transferase fusion variant proteins” (priority 2003, dated 2010).
